In patent publication US12440535B2, “IL-4 derived peptide fragments for use in the treatment of diabetic nephropathy” (SERODUS APS, priority 2022, dated 2025):
“Also recorded” adds a separate entry of the source. Where no end group is shown, it is not given here. [ ]: non-standard residue; d: D form. βAla = NCCC(=O)O

Legend:
[1] = system: ReninAAV UNx db/db mice; test: ReninAAV UNx db/db mice model of diabetic nephropathy, urine biomarkers; format: in vivo; conditions: 10 mg/kg subcutaneously once daily, compared to vehicle, spot urine at termination day 77
Experimental: 28 female mice (BKS.Cg-Dock7m+/+Lepradb/db BLKS, 5 weeks of age) were transferred to the Gubra Research animal unit. Throughout the habituation and study period, the animals were housed in a light-, temperature-, and humidity-controlled room with free access to food and water. All animal experiments were conducted in accordance with Gubra's bioethical guidelines, which are fully compliant with internationally accepted principles for the care and use of laboratory animals. The animals were group-housed until uni-nephrectomies, then single-housed.
The animals were terminated on day 77; blood was taken for later analysis, body weight was recorded, and spot urine was collected.
Compound A was provided by Phlogo ApS, Copenhagen, Denmark (10 mg/ml miliQ water diluted to the dose formulations). Compound A was provided as a dimeric peptide comprising two copies of the sequence AQFHRHKQLIRFLKRA (SEQ ID NO: 1). […]
Urine samples were stored at minus 80° C. until analysis. […] Urine albumin was measured using a commercial ELISA kit (Bethyl Laboratories, Inc.), according to the manufacturer's instructions, and urine creatinine was measured using a commercial kit (Roche Diagnostics) on the Cobas c 501 autoanalyzer, according to the manufacturer's instructions. Urinary KIM-1 was measured using a commercial ELISA kit (R&D Systems) according to the manufacturer's instructions.

[2] = system: macrophages; conditions: cited from earlier work
[3] = target: T1, type II IL-4R (Homo sapiens, UniProt P24394); conditions: Klementiv 2013; cited from earlier work
T1 sequence (P24394 26-825): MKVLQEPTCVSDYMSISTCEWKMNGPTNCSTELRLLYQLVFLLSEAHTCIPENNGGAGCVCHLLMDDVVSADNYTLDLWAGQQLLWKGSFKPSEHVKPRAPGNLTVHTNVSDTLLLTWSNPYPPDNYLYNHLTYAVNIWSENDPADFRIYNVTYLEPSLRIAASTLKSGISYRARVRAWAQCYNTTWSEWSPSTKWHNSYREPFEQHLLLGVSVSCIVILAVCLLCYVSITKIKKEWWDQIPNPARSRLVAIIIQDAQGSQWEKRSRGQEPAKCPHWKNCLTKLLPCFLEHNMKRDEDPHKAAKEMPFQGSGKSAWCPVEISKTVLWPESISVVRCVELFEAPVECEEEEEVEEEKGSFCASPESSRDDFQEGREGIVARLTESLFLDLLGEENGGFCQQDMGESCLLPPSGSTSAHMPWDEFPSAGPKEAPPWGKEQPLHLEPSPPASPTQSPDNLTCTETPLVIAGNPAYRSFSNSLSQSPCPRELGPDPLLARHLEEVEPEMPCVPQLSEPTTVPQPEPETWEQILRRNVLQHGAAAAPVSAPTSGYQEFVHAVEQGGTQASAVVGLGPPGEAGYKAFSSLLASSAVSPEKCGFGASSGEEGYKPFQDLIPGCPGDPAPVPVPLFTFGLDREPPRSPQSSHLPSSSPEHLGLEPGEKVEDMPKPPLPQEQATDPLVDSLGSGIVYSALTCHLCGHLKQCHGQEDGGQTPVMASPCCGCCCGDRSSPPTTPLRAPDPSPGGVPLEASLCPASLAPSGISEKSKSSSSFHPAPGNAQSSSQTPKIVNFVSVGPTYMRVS

[4] = target: T2, type I IL-4R (Homo sapiens, UniProt P24394); conditions: Klementiv 2013; cited from earlier work
T2 sequence (P24394 26-825): T1 sequence (P24394 26-825)
T2 sequence (P31785 23-369 partner): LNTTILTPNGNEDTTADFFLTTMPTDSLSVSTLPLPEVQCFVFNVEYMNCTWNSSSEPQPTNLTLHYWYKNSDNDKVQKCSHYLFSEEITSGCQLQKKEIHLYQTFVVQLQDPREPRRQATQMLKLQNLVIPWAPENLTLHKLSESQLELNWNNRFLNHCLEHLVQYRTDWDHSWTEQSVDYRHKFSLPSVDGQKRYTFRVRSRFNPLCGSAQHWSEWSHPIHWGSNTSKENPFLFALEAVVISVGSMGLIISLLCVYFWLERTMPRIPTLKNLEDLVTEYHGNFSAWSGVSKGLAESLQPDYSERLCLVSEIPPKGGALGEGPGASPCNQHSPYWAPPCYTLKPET

[5] = system: IL-4 receptors; conditions: cited from earlier work

Row | Substance | ACR (urinary albumin corrected for creatinine) [1] | KIM-1/CR (urinary KIM-1 corrected for creatinine) [1] | Macrophage activation [2] | Mode of action on type II IL-4R [3] | Mode of action on type I IL-4R [4] | Binding to the IL-4 receptors [5]
1 | Compound A: dimer of SEQ ID NO:1 (AQFHRHKQLIRFLKRA), two copies connected via their C-terminal through a lysine-beta-alanine linker (AQFHRHKQLIRFLKRAK[βAla]; also: dimer of two copies joined at C-termini via lysine-beta-alanine linker, Rink amide) | significantly decreased; also recorded: significantly reduced | significantly decreased; also recorded: significantly reduced |  |  |  | 
2 | AQFHRHKQLIRFLKRA [SEQ ID NO:1, IL-4 derived peptide, variant of AA71-AA86 of IL-4 with two amino acid substitutions] |  |  | inhibiting macrophage activation | antagonist | high affinity partial agonist | capable of binding to the IL-4 receptors
